Results reported in US11357752B2, “Carolacton and derivatives thereof for use in the treatment of cell proliferation disorders” (Helmholtz-Zentrum für Infektionsforschung GmbH, priority 2017, dated 2022).
Where two headings read alike, the source gives them in different places.

Molecular target: T1, spFoID (Streptococcus pneumoniae serotype 4, UniProt Q97RI9)
T1 construct: made in house; host or cells: E. coli BL21 (DE3)
Test: FoID dehydrogenase (DH) enzyme assay
Type: biochemical, S. pneumoniae
Method: (6R,S)-5,10-Methylene-5,6,7,8-tetrahydrofolic acid ((6R,S)-5,10-CH2-THF), calcium salt and (6R,S)-5,10-Methenyl-5,6,7,8-tetrahydrofolic acid ((6R,S)-5,10-CH=THF) chloride were purchased from Schircks Laboratories (Bauma, Switzerland) and were used as substrates for FoID dehydrogenase and cyclohydrolase enzyme assays, respectively. Only the R-isomer, which accounts for 50% of (6R,S)-5,10-CH2-THF and (6R,S)-5,10-CH=THF, respectively, is used by the enzyme. (6R,S)-5,10-CH2-THF was dissolved in N2-spargeled basic buffer (50 mM Tris-HCl (pH 8.0), 100 mM β-mercaptoethanol) as described by Sah and Varshney, 2015a (6R,S)-5,10-CH=THF was first dissolved in DMSO as a 100 mM stock solution.
Because FoID is a bifunctional enzyme, dehydrogenase and cyclohydrolase activities were determined for FoID enzyme kinetics, respectively. The dehydrogenase activity of FoID was assayed for its substrate 5,10-CH2-THF and cofactor NADP+ (in the case of MTHFD2, NAD+ was used as cofactor) based on monitoring the formation of 5,10-CH=THF while the cyclohydrolase activity of FoID was determined for its substrate 5,10-CH=THF by monitoring the hydrolysis of 5,10-CH2-THF. The enzyme kinetics for the dehydrogenase activity of all FoIDs except hsMTHFD1_DC were determined at 30° C. in 50 mM Tris-HCl (pH 7.5), 30 mM β-mercaptoethanol. The hsMTHFD1_DC dehydrogenase activity was measured in 25 mM MOPS (pH 7.3), 30 mM β-mercaptoethanol at 30° C. To measure the enzyme kinetics constants for 5,10-CH2-THF, for example in the case of ecFoID, the NADP concentration was fixed at 1 mM and the concentration of 5,10-CH2-THF varied from 5 μM to 1,500 μM (R-isomer). Similarly, to measure the kinetic constants of ecFoID for NADP+, the concentration of 5,10-CH2-THF (R-isomer) was fixed at 1 mM and the concentration of NADP+ varied from 10 μM to 1,500 μM. For different FoIDs, the varied concentration range of substrates could be different. […] To monitor the formation of 5,10-CH=THF, the absorbance of the reaction mixture was monitored at 350 nm in micro UV cuvettes (BRAND, Essex, Connecticut, USA). The concentration of 5,10-CH=THF produced in the reaction was determined using an extinction co-efficient of 0.0249 μM-1 cm-1. […] The consumption of 5,10-CH=THF was measured by recording the absorbance of the reactions at 355 nm using the TECAN Infinite 200 PRO equipped with a monochromator. […] The inhibition constants (Ki) of carolacton on FoID were determined by measuring the apparent Km values when adding certain amounts of carolacton to the enzyme reactions. […] To compare the inhibition effects of carolacton between the different FoIDs, the half maximal inhibitory concentration (IC50) of carolacton on the same amount of enzyme was determined for FoIDs involved in this study. […]

T1 sequence (Q97RI9 whole entry): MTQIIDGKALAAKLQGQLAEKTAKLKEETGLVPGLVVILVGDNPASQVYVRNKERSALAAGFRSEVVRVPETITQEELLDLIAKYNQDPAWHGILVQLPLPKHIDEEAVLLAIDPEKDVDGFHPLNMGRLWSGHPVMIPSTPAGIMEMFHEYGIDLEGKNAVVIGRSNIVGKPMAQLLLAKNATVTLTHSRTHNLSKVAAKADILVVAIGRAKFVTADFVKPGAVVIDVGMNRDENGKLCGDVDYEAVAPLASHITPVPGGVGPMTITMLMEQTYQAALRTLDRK

Structure (SMILES): CO[C@H](CC(=O)O)[C@@H](C)C(=O)[C@H](C)/C=C(\C)[C@H]1OC(=O)[C@H](O)[C@H](O)/C=C/[C@H](C)CCC[C@@H]1C [Carolacton, carolacton]
- IC50 (10 nM enzyme, read-out: IC50, carolacton inhibition on DH activity): 36.8 nM
- IC80 (10 nM enzyme, read-out: IC80, carolacton inhibition on DH activity): 169 nM
- Ki (vs 5,10-CH2-THF, read-out: Ki (5,10-CH2—THF), carolacton inhibition on DH activity): 42.2 nM
- Ki (vs cofactor NADP+, read-out: Ki (NADP^+), carolacton inhibition on DH activity): 34.2 nM
